Data: US20240226034A1, “Use of Terpenoids and Salicylates as Anesthetics and Analgesics” (THE REGENTS OF THE UNIVERSITY OF CALIFORNIA, priority 2021, published 2024)
Values joined by “and” are separate entries in the source; they are usually repeats but may differ in a detail not shown here. Identical values can stand only once. “Also recorded” adds a separate entry of the source.

Experiments:
[1] = biological target: T1, GABAA receptors (human α1 GABRA1 and rat β2 GABRB2 subunits) (UniProt P14867+P63138); experiment: Two-electrode voltage clamp of GABAA receptors expressed in Xenopus oocytes; type: cell-based; conditions: for effect on GABAA receptor currents: dose-response, oocytes
T1 construct: expressed in transfected cells; host or cells: Xenopus laevis oocytes (intranuclear DNA injection)
T1 sequence (P14867 28-456): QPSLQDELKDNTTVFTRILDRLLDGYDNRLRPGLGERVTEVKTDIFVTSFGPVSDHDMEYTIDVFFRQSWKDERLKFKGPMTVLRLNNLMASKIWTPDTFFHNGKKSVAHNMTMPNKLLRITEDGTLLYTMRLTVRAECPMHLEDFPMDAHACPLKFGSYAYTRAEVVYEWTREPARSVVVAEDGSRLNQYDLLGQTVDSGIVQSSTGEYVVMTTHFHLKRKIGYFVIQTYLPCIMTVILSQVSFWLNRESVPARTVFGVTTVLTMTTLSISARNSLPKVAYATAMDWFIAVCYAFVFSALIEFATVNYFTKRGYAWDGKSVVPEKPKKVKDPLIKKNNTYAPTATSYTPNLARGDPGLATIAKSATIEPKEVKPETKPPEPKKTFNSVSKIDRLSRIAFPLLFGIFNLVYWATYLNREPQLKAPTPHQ
T1 sequence (P63138 25-474 limits assumed): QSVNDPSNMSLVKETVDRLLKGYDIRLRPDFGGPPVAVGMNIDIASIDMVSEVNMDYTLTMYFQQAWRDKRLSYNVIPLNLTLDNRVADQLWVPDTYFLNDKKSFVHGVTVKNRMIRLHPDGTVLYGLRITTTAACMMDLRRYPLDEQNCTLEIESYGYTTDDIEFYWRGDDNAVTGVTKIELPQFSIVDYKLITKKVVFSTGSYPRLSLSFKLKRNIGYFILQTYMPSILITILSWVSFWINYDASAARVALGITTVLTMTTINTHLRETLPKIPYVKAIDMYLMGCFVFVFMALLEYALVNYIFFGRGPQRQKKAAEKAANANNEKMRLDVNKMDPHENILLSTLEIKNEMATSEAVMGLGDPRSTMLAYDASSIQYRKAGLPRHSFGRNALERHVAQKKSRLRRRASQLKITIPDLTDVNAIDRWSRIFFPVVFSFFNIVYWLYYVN
Excerpt: Ovaries removed from sexually mature Xenopus laevis frogs were bluntly dissected to remove surrounding connective tissue and then digested with 0.2% type I collagenase in an oocyte Ringer's solution. Once free from thecal cells and connective tissue, individual oocytes were rinsed, sorted, and stored in a modified Barth's solution (R. Brosnan et al., […]. 103, (2006): 86; L. Yang, P. S. Milutinovic, […]. Sonner, […]. 105, (2007): 393; […]. Fukushima, & […]. 44, (2017): 577; […], Pharmacology 103, (2019): 10). Heteromeric GABAA receptors were expressed in oocytes by blind intranuclear injection of 1 ng DNA encoding the human al (GABRA1) and rat B2 (GABRB2) subunits in a 1:1 ratio. NMDA receptors were expressed by intracytoplasmic injection of 5 ng RNA encoding rat NR1 (GRIN1) and rat NR2a (GRIN2A) subunits in a 1:1 ratio. Nax 1.2 channels were expressed by injection of 5 ng RNA encoding the human SCN2A gene. Two-electrode voltage clamp studies of GABAA receptors were carried out in a 0.25-mL linear perfusion chamber. Perfusates were delivered by using a syringe pump at 1.5 mL/min using gastight glass syringes and polytetrafluoroethylene tubing. […] King Precision Glass, Claremont, CA, USA) connected to separate […] (Axon Instruments HS2A; Molecular Devices, San Jose, CA, USA) through which voltage was clamped at -80 mV and current was passed via a computer-controlled amplifier (Axon Instruments GeneClamp 500B; Molecular Devices). Oocytes were perfused with frog Ringer's (FR) solution containing 115 mM NaCl, 2.5 mM KCl, 1.8 mM CaCl2), and 10 mM HEPES prepared from ACS-grade chemicals and 18.2 MΩ H2O, filtered and pH adjusted to 7.4. […] After 30 s, the perfusate was switched back to FR solution. This process was repeated until a stable baseline response was achieved. Next, FR containing either L-carvone (99%; Sigma-Aldrich, St. Louis, MO, USA) or methyl salicylate (>99%; Sigma-Aldrich) at the test concentration was used to perfuse the oocyte for 1.5 min, and then the oocyte was perfused with FR+GABA solution containing this same drug and concentration for 30 s. […] Uninjected oocytes served as negative controls. Only one drug and concentration were studied per oocyte. […] Percent change in current was calculated as follows: [formula] • where IB is the baseline pre-drug current peak and ID is the drug current peak. For each drug and ion channel, data were fit to a Hill equation using nonlinear regression with sequential quadratic programming and bootstrap estimates of parameter standard errors (SPSS, v. 27; IBM, Armonk, NY, USA). In the model, maximum drug inhibition (Imax) was constrained to not be less than -100%. Initial parameter estimates were seeded with values based on visual inspection of respective dose-response curves in order to facilitate model convergence.

[2] = biological target: T2, NMDA receptors (rat NR1 GRIN1 and rat NR2a GRIN2A subunits) (Rattus norvegicus, UniProt P35439+Q00959); experiment: Two-electrode voltage clamp of NMDA receptors expressed in Xenopus oocytes; type: cell-based; conditions: for inhibition of NMDA receptors: at the mean plasma concentration during IV infusion anesthesia in rats; for Hill coefficient, NMDA receptor inhibition: dose-response model; for effect on NMDA receptor currents: dose-response, oocytes
T2 construct: expressed in transfected cells; host or cells: Xenopus laevis oocytes (intracytoplasmic RNA injection)
T2 sequence (Q00959 20-1464 limits assumed, other chains not shown): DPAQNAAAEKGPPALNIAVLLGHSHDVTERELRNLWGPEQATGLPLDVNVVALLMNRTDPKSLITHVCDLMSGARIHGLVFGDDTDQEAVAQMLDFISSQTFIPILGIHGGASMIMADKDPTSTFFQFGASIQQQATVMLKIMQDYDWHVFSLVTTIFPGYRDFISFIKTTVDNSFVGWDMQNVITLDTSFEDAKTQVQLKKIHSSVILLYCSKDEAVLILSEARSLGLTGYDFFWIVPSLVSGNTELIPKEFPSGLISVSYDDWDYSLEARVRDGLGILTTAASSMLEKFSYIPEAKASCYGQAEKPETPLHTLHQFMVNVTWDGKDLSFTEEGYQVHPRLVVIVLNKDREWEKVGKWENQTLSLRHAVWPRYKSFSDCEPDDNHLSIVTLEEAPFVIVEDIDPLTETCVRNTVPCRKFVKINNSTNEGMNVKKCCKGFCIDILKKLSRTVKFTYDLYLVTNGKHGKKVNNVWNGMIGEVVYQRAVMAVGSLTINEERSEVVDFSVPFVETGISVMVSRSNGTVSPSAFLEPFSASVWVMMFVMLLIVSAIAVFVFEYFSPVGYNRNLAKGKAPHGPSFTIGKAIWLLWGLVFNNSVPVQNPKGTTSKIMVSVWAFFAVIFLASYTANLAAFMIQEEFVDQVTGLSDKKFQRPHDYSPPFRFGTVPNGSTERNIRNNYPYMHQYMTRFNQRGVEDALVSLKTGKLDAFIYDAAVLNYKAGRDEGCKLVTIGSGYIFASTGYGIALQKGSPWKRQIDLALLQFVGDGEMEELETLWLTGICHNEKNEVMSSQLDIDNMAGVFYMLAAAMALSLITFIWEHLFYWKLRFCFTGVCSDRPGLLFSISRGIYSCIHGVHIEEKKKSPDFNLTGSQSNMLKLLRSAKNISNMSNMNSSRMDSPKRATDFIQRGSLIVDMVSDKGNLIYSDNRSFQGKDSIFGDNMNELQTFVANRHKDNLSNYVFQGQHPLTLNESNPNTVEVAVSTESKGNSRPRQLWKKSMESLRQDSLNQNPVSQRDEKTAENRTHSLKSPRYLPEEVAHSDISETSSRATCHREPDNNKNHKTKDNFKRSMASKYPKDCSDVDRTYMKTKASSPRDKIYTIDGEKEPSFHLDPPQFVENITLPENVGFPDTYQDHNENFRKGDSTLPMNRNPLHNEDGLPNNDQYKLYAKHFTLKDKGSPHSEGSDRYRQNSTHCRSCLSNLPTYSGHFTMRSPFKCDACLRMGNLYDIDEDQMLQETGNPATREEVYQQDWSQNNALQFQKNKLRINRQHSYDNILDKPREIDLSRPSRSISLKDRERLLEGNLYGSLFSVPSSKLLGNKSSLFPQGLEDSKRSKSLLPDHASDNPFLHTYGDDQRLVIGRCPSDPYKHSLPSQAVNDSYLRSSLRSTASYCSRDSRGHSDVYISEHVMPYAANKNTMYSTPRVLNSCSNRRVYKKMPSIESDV
Excerpt: Ovaries removed from sexually mature Xenopus laevis frogs were bluntly dissected to remove surrounding connective tissue and then digested with 0.2% type I collagenase in an oocyte Ringer's solution. Once free from thecal cells and connective tissue, individual oocytes were rinsed, sorted, and stored in a modified Barth's solution (R. Brosnan et al., Anesth. Analg. 103, (2006): 86; L. Yang, P. S. Milutinovic, R. J. Brosnan, E. I. Eger 2nd, & J. M. Sonner, Anesth. Analg. 105, (2007): 393; R. J. Brosnan, F. B. Fukushima, & T. L. Pham, Anaesth. Analg. 44, (2017): 577; A. Cenani, R. J. Brosnan, & H. K. Knych, Pharmacology 103, (2019): 10).
Heteromeric GABAA receptors were expressed in oocytes by blind intranuclear injection of 1 ng DNA encoding the human al (GABRA1) and rat B2 (GABRB2) subunits in a 1:1 ratio. NMDA receptors were expressed by intracytoplasmic injection of 5 ng RNA encoding rat NR1 (GRIN1) and rat NR2a (GRIN2A) subunits in a 1:1 ratio. Nax 1.2 channels were expressed by injection of 5 ng RNA encoding the human SCN2A gene.
Studies of NMDA receptors were carried out using equipment identical to that described for GABAA receptors. Transmembrane potential was clamped at −80 mV, and oocytes were perfused with a barium-containing FR solution (Ba-FR) which substituted equimolar BaCl2 for calcium salts and contained 0.1 mM EGTA as a calcium chelator. After 5 min, the perfusate was changed for 30 s to barium FR containing 0.1 mM glutamate plus 0.01 mM glycine (Ba-FREG) as receptor agonists which produce an NMDA receptor current greater than 99% of the maximal response. Next, Ba-FR containing the study drug was perfused for 5 min and then switched to Ba-FREG containing the same test article for 30 s. The drug was then washed out with a 5-min perfusion of Ba-FR followed by a 30-s exposure to Ba-FREG to confirm post-drug currents had returned to within 10% of pre-drug values.
The change in whole cell peak current before and during agonist exposure (for GABAA and NMDA receptors) or before and during the voltage step clamp (for Nav1.2 channels) was measured in the tracings immediately before and during drug exposure. Percent change in current was calculated as follows:
[formula] • where IB is the baseline pre-drug current peak and ID is the drug current peak. For each drug and ion channel, data were fit to a Hill equation using nonlinear regression with sequential quadratic programming and bootstrap estimates of parameter standard errors (SPSS, v. 27; IBM, Armonk, NY, USA). In the model, maximum drug inhibition (Imax) was constrained to not be less than −100%. Initial parameter estimates were seeded with values based on visual inspection of respective dose-response curves in order to facilitate model convergence.

Sprague Dawley rats = experiment: Continuous IV infusion anesthesia; type: in vivo, rat; conditions: for time after start of injection to loss-of-righting and absent tail clamp response: continuous 0.2 mL/min IV infusion of 10% emulsion
Protocol: Lateral tail veins were catheterized in eight, 70-day-old, male, Sprague Dawley rats weighing 309±6 g. A 10% solution of L-carvone or methyl salicylate in 20% […]® was each administered IV to 8 rats (4 animals per drug treatment) by using a syringe pump at a rate of 12 mL/h. When rats lost their righting reflex and were unresponsive to a tail clamp, a midline laparotomy was performed, the abdominal aorta catheterized, and the rat exsanguinated. Blood was collected in a heparin tube and centrifuged; plasma was separated and stored in cryogenic tubes at −80° C. until analysis.

carp = conditions: immersion; cited from earlier work
[3] = at the mean plasma concentration during IV infusion anesthesia in rats

| Compound | potentiation of GABAA receptors [1, 3] [%] | effect on GABAA receptor currents [1] | IC50 ([1]; high-affinity inhibitory site, 50 μM GABA, oocytes clamped at −80 mV, read-out: IC50, inhibition of GABAA receptor currents) | Hill coefficient, GABAA receptor potentiation site ([1]; low-affinity binding) | concentration for second positive allosteric GABAA site relative to high-affinity site ([1]; potentiation site vs inhibitory site) | EC50 ([1]; second site, high concentrations, read-out: median effective concentration, potentiation of GABAA currents) [µM] | inhibition of NMDA receptors [2] [%] | Hill coefficient, NMDA receptor inhibition [2] | effect on NMDA receptor currents [2] | time after start of injection to loss-of-righting and absent tail clamp response (Sprague Dawley rats) [min] | excitement after injection (Sprague Dawley rats; rat, in vivo, iv) | tonic or clonic muscle activity (Sprague Dawley rats; rat, in vivo, iv) | bath concentration causing anesthesia (carp) [mM] | GABAA receptor current at highest concentration ([1]; 10 mM drug) | inhibition of GABAA receptors [1, 3] [%] | Hill coefficient, GABAA receptor inhibition ([1]; dose-response model) | NMDA receptor current at highest concentration ([2]; 10 mM drug) | greater inhibition of NMDA receptors and Nav1.2 channels than at the methyl salicylate plasma concentrations ([2]; at L-carvone plasma concentrations during anesthesia, NMDA and Nav1.2) | tonic or clonic muscle activity (Sprague Dawley rats; continuous 0.2 mL/min IV infusion) |
| --- | --- | --- | --- | --- | --- | --- | --- | --- | --- | --- | --- | --- | --- | --- | --- | --- | --- | --- | --- |
| COC(=O)c1ccccc1O [methyl salicylate] | 30 | potently inhibited; also recorded: biphasic effect | 0.11 µM and ~0.1 µM | less than 1 | about 50,000 times | 5300 | 53 | ~1 | dose-dependently inhibited | 3 to 4 | transient excitement in half of the animals | No tonic or clonic muscle activity | 0.8 to 2.3 |  |  |  |  |  |  |
| L-carvone |  | dose-dependent inhibition |  |  |  |  | 71 | ~1 | dose-dependent inhibition | 2 to 4 |  |  | 1.9 to 4.5 | near or complete loss of channel currents; also recorded: almost entirely inhibited | 96 | ~1 | near or complete loss of channel currents | 15-30% | tonic muscle contractions suggestive of seizure |
